Source: US20210128639A1, “CELL PREPARATION FOR TREATING BRAIN TUMOR” (priority 2017, published 2021)

What was measured:
Assay type in all cases: cell-based, human
NS/PCs expressing HSVtk = assay: Cell death of NS/PCs expressing HSVtk on adding ganciclovir to the medium; details: 1 μg/ml ganciclovir (GCV) added to the medium
Excerpt: Secondary or tertiary NS/PCs differentiation-induced from human iPS cells were collected with the centrifuge and disassembled into single cells using TrypLE Select. The single cells were suspended in NS medium, inoculated into a low adhesive flask at a concentration of 1×10^5 cells/ml, infected with the CSIV-EF-HSV1tk-IRES2-hKO1 lentiviral vector at an MOI (multiplicity of infection) of 0.5 to 1, and cultured for 7 days with the medium replaced every 3 to 4 days. The obtained NS/PCs were infected with the CSIV-EF-HSV1tk-IRES2-hKO1 lentiviral vector at an MOI of 0.5 to 1 in the same way again to prepare therapeutic stem cells (TSCs), that is, NS/PCs expressing HSVtk.

[1] = system: Tet-induction iPS cells expressing HSVtk; assay: Cell death of Tet-induction iPS cells expressing HSVtk on adding Dox and GCV to the medium; details: 1 μg/ml doxycycline (Dox) and 1 μg/ml GCV added to the medium
Excerpt: Human iPS cells were infected with the CSIV-HSV1tk-TRE-EF-KT lentiviral vector at an MOI of 2.5 to 10 and cultured. The clones were then sorted with the cell sorter to obtain an iPS cell line expressing hKO1 steadily and highly.

[2] = system: Tet-induction NS/PCs expressing HSVtk; assay: Cell death of Tet-induction NS/PCs expressing HSVtk on adding Dox and GCV to the medium; details: 1 μg/ml doxycycline (Dox) and 1 μg/ml GCV added to the medium
Excerpt: Tet-induced iPS cells expressing HSVtk were differentiation-induced into NS/PCs to obtain secondary and tertiary Tet-induced NS/PCs expressing HSVtk.

Nc1nc(O)c2ncn(COC(CO)CO)c2n1 [GCV, ganciclovir]
cell death of NS/PCs expressing HSVtk (NS/PCs expressing HSVtk): cell death of the NS/PCs expressing HSVtk was induced | cell death of Tet-induction iPS cells expressing HSVtk [1]: cell death of Tet-induction iPS cells expressing HSVtk was induced | cell death of Tet-induction NS/PCs expressing HSVtk [2]: cell death of these Tet-induction NS/PCs expressing HSVtk was also induced
